Measurements published in patent publication US9522935B2, “Commands and method of treating cancer via RHO pathway” (priority 2013, dated 2016).

Columns and labels:
[1] = tested on: Jak/STAT phosphorylation in PancI cells; assay: Western Blotting of signal pathway proteins in PancI cells; type: cell-based, human
Experimental: The Jak/STAT channel plays an important role in cell growth, proliferation, and survival. Using Western Blotting, the present invention studied the effect of LD030 on Jak/STAT phosphorylation in PancI cells.
The cells were treated with LD030 at concentrations of 20 μM and 50 μM, for 4 hours, 8 hours, 24 hours, and 48 hours. After the treatment, the cells were collected and subject to lysis in the buffer (50 mM Tris-HCl pH7.5, 100 mM NaCl, 5 mM EDTA, 40 mM NaP2O7, 1% Triton X-100, 1 mM dithiothreitol, 200 μM Na3VO4, 100 μM phenylmethysufonyl fluoride fluoride, 2 μg/ml leupeptin, 4 μg/ml aprotinin and 0.7 μg/ml pepstatin). Analysis of stained protein (BioRad, 500-0006) was conduct for adjusting the protein concentration. Same quantity of protein (50 μg/lane) was used for 10% SDS-polyacrylamide gel electrophoresis, and then electrically transferred to the polyvinylidene fluoride (PVDF) membrane. The membrane was treated with antibodies specific to p-Jak2 (Cell signaling, 3771), p-Stat3 (Cell signaling, 9131) and α-tubulin (Zymed Laboratories, 32-2500). Visible protein bands were detected with an enhanced chemiluminescence (ECL Plus) detection system (Amersham).
The protein electrophoresis results in the above described experiments are shown FIGS. 23 and 24 for LD030 treatments at 20 μM and 50 μM, respectively. […] The expression of tubulin as internal reference was basically unchanged.

HepG2 = assay: In vitro effects on growth of liver cancer cells (Table 4); type: cell-based, human
HepG2 cells = assay: Flow cytometry (PI staining) for apoptosis of HepG2 cells; type: cell-based, human; conditions: HepG2, 24 hours, 0.03-17.5 μM
Experimental: The study was conduct by using flow cytometry to detect apoptosis of HepG2 cells after being treated for 24 hours with LD030 at concentrations 0.03 μM, 0.14 μM, 0.7 μM, 3.5 μM, and 17.5 μM along with blank control. Then proceeded as follows:
1. Collect cells (1-5×10^6/mL), centrifuge at 500-1000 r/min for 5 min, and discard the culture medium.
2. Wash the cells with 3 ml PBS once.
3. Centrifuge to discard PBS, and add 70% ice-cold ethanol for fixation, 4° C., 1-2 hours.
4. Centrifuge to discard ethanol, and re-suspend in 3 ml PBS for 5 min.
5. Filter with a 400 mesh screen, and centrifuge 500-1000 r/min for 5 min to discard PBS.
6. Stain with 1 ml propidium iodide (Propidium Iodide, PI) at 4° C. in the dark for 30 min.
7. Conduct flow cytometry.

[2] = tested on: SF-268 (brain tumor cell lines); assay: MTT assay, LD030 on SF-268; type: cell-based; conditions: Homo sapiens; SF-268, 100 μM, 48 hours; read-out: inhibition rate on cell growth
Experimental: MTT assay, a well known method known in the art, was used to analyze anticancer effects of compound LD030 on human cancer cell lines, such as, HepG2 (liver cancer cell line), PancI (pancreatic cancer cell line), NCI-H460 (lung cancer cell line), MCF-7 (breast adenocarcinoma cell line) and SF-268 (brain tumor cell lines). An LD030 solution was diluted gradually to obtain a serial of LD030 solutions with decreasing concentrations, which was used to treat various cancer cell lines mentioned above incubated in separate container. […] For incubating with HepG2 cell line, LD030's concentrations were 0.001 μM, 0.01 μM, 0.1 μM, 1 μM, 10 μM, 100 μM. For PancI cell line, the concentrations were 0.1 μM, 1 μM, 10 μM, 100 μM. For NCI-H460 cell line, the concentrations were 0.001 μM, 0.01 μM, 0.1 μM, 1 μM, 10 μM, 100 μM. For MCF-7 cell line, the concentrations were 0.001 μM, 0.01 μM, 0.1 μM, 1 μM, 10 μM, 100 μM. For SF-268 cell line, the concentrations were 0.001 μM, 0.01 μM, 0.1 μM, 1 μM, 10 μM, 100 μM.

[3] = tested on: Jak/STAT phosphorylation in PancI cells; assay: Western Blotting of signal pathway proteins in PancI cells; type: cell-based, human; remark: listed apart in the source
[4] = Toxicity study of LD030 on BALB/c mice; type: in vivo
Experimental: LD030 animal toxicity experiments were conducted in adult BALB/c mice. The mice were subject to a […] dosage of 1-16 mg/Kg via peritoneal injection. […] The results confirmed that at a dosage as high as 16 mg/Kg LD030 is safe to BALB/c. By short-term toxicological experiment, the half-lethal dose LD50 (under continuous treatment) is 4 mg/kg, and the median effective dose ED50 of 0.2 mg/kg, resulting in a therapeutic Index of 20 (that is, LD50/ED50≈20).

[5] = tested on: pancreatic cancer cell lines; assay: Nude mouse model of pancreatic cancer (xenograft), tumor size; type: in vivo, NOD/SCID mice; conditions: 43 days; for tumor volume reduced: FIG. 15
Experimental: Two strains of pancreatic cancer cell lines were selected to be grafted to nonobese diabetic/severe combined immunodeficient (NOD/SCID) mice, and the tumor was inoculated in mouse ventral sides. About two weeks, they were used as a nude mouse model of pancreatic cancer. […] Each of the above groups. The treatment continued for 43 days (gemcitabine alone group 2 times a week; other groups 3 times a week), and then tumor size was recorded as shown in FIG. 16. […] Further experiments were conducted to study the effects of the combinational use of LD030 with gemcitabine as compared being used alone on tumor inhibition. Four treatment groups were set up: (a) blank control, (2) gemcitabine (25 mg/kg/time, 2 times a week), (3) LD030 (0.5 mg/kg/time, 3 times a week), (4) LD030 (0.5 mg/kg/time, 3 times a week) together with gemcitabine (25 mg/kg/time, 2 times a week).

[6] = 20 μM, at 24 hours and 48 hours, versus blank control
[7] = 50 μM, at 24 hours and 48 hours, versus blank control

For CC(=O)OC(C)(C)C(=O)CCC(C)C1CC[C@@]2(C)C34CC[C@H]5C(C)(C)[C@@H](O)CC[C@]5(C)C3(CC[C@]12C)O4 (stereo partly drawn) [LD030], the p-jak2 [1, 6] was “significantly reduced”, the “p-stat3 (tyr705)” value [1, 6] was “significantly reduced” and the p-JNK ([1]; 20 μM, versus blank control) was “up-regulates”. The p-ERK [1, 7] was “significantly reduced”, the p-c-raf [1, 7] was “significantly reduced” and the “expression of Cyclin D1” value ([1]; 50 μM, at 48 hours) was “decreased”. The “expression of p-JNK” value ([1]; 50 μM, versus blank control) was “increased”, the “expression of p-p38” value ([1]; 50 μM, versus blank control) was “increased” and the IC50 (HepG2; Homo sapiens, HepG2, in vitro growth of HepG2 liver cancer cells) was 1330 nM. The IC50 (HepG2; in vitro growth of HepG2 liver cancer cells) was 1570 nM, the “cell lysis by flow cytometry” value (HepG2 cells) was “greater proportions of cell lysis with increased LD030 concentrations” and the inhibition at 100 µM [2] was over 80%. For the same molecule, the p-p38 protein expression ([3]; 20 μM, versus blank control) was “increased”, the p-jak2 [3, 7] was “significantly reduced” and the “p-stat3 (tyr705)” value [3, 7] was “significantly reduced”. The “expression of Cyclin B1” value ([3]; 50 μM, at 48 hours) was “decreased”, the “therapeutic Index (LD50/ED50)” value ([4]; BALB/c, mouse, in vivo) was 20 and the LD50 ([4]; BALB/c, mouse, in vivo, short-term toxicological experiment, under continuous treatment, read-out: half-lethal dose LD50) was 4 mg/kg. For the same molecule, the ED50 ([4]; Mus musculus, read-out: median effective dose ED50) was 0.2 mg/kg, the toxicity observed ([4]; adult BALB/c mice, 1-16 mg/Kg via peritoneal injection) was “No significant toxicity” and the survival ([4]; adult BALB/c mice, 1-16 mg/Kg via peritoneal injection, after 14 days) was “still alive”. For the same molecule, the tumor volume reduced ([5]; 0.5 mg/kg/time LD030, 3 time a week) was 21%, the tumor volume reduced ([5]; 1 mg/kg/time LD030, 3 time a week) was 62% and the tumor size reduced ([5]; LD030 0.5 mg/kg/time, 3 times a week, FIG. 17) was 21%.
